Data from article PMC9490236, “Accurate de novo design of membrane-traversing macrocycles” (Cell, 2022).
Values joined by “and” are separate entries in the source; they are usually repeats but may differ in a detail not shown here. Equal values may be shown once. Read-outs that look alike come from different tables or passages of the source.

Test: Pharmacokinetics and oral bioavailability of D8.3.p1 and D10.1 in Balb/C female mice (PO, SQ, IV)
Assay type: in vivo
Procedure: In vivo bioavailability assays were conducted in mice and rats. D8.3.p1 and D10.1 were studied in female Balb/C mice by van Voorhis group at University of Washington. D11.2 was evaluated in Sprague Dawley (SD) rats by Robert Griffin’s group at Takeda Pharmaceuticals. D11.3 was studied in the male swiss albino mice by the contract research organization, GVK Biosciences Pvt. Ltd., Hyderabad, India. All animals used in these studies were handled in strict accordance with practices made to minimize suffering. All animal experiments conducted at the University of Washington, USA, and Takeda Pharmaceuticals, USA were approved by the Institutional Animal Care and Use Committee. Animal studies at GVK Biosciences were reviewed and approved by the Institutional Animal Ethics Committee of GVK Biosciences. We selected four designed macrocycles with diverse structures and in vitro rates of permeability for in vivo oral bioavailability studies in the rodent models. Due to the intensive resource requirements for such studies, these studies were conducted by three different research groups. D8.3.p1 and D10.1 were studied in female Balb/C mice by van Voorhis group at University of Washington. D11.2 was evaluated in Sprague Dawley (SD) rats by Robert Griffin’s group at Takeda Pharmaceuticals. D11.3 was studied in the male swiss albino mice by the contract research organization, GVK Biosciences Pvt. Ltd., Hyderabad, India. […] Blood samples were collected at multiple time points and plasma was separated from whole blood using centrifugation and stored at -80°C. […] Samples were mixed, centrifuged, and supernatant harvested for LC-MS analysis. For RP-HPLC analysis, peptides were evaluated using Agilent ZORBAX Eclipse Plus C18 1.8 μm, 2.1 mm x 50 mm and Waters Xevo TQ-S micro Triple Quadrupole/ACQUITY UPLC H-Class. […] Pharmacokinetic parameters were modeled using the Phoenix WinNonlin software package. […]

[1] = D10.1 PO 12.2 mg/kg, individual mice M1, M2, M3, 12.2 mg/kg
[2] = D10.1 PO 12.2 mg/kg, mean n=3, 12.2 mg/kg
[3] = D10.1 SQ 12.2 mg/kg, individual mice M1, M2, M3
[4] = D10.1 SQ 12.2 mg/kg, individual mice M2, M3 (M1 NA)

Which Plasma level (D10.1 PO 12.2 mg/kg, 15 min, individual mice M1, M2, M3, 12.2 mg/kg) does the source give for CC[C@H](C)[C@@H]1NC(=O)[C@@H](CC(C)C)NC(=O)[C@H](CC(C)C)N(C)C(=O)[C@H](Cc2ccccc2)NC(=O)CN(C)C(=O)[C@@H]2CCCN2C(=O)[C@H](C(C)C)NC(=O)[C@H](Cc2ccccc2)N(C)C(=O)[C@H]2CCCN2C(=O)[C@H](CC(C)C)NC1=O [Design D10.1, DLEU ILE LEU DPRO *PHE VAL PRO *GLY PHE *LEU] here?
Its Plasma level is 2260 nM.

And the Plasma level (D10.1 PO 12.2 mg/kg, 15 min, mean n=3, 12.2 mg/kg)?
The Plasma level was 2580 nM.

What about the Plasma level (D10.1 PO 12.2 mg/kg, 30 min, individual mice M1, M2, M3, 12.2 mg/kg) of the same compound?
Its Plasma level is 2490 nM and 3640 nM and 2640 nM.

What about the Plasma level (D10.1 PO 12.2 mg/kg, 30 min, mean n=3, 12.2 mg/kg) of the same compound?
The Plasma level was 2920 nM.

What about the Plasma level (D10.1 PO 12.2 mg/kg, 60 min, individual mice M1, M2, M3, 12.2 mg/kg) of the same compound?
The Plasma level was 2140 nM and 1640 nM and 1570 nM.

And the Plasma level (D10.1 PO 12.2 mg/kg, 60 min, mean n=3, 12.2 mg/kg)?
Its Plasma level is 1780 nM.

What about the Plasma level (D10.1 PO 12.2 mg/kg, 120 min, mean n=3, 12.2 mg/kg) of the same compound?
Its Plasma level is 720 nM.

And the Plasma level (D10.1 PO 12.2 mg/kg, 240 min, mean n=3, 12.2 mg/kg)?
Its Plasma level is 160 nM.

And the Plasma level (D10.1 PO 12.2 mg/kg, 360 min, individual mice M1, M2, M3, 12.2 mg/kg)?
The Plasma level was 0 nM and 100 nM.

And the Plasma level (D10.1 PO 12.2 mg/kg, 360 min, mean n=3, 12.2 mg/kg)?
Its Plasma level is 70 nM.

And the Plasma level (D10.1 PO 12.2 mg/kg, 1440 min, individual mice M1, M2, M3)?
The Plasma level was 0 nM.

And the Plasma level (D10.1 PO 12.2 mg/kg, 1440 min, mean n=3)?
Its Plasma level is 0 nM.

And the Tmax (D10.1 PO 12.2 mg/kg, individual mice M1, M2, M3)?
Its Tmax is 0.5 h.

What about the “AUC0-∞” value [1] of the same compound?
The value was 226.62 µmol·min/L and 337.03 µmol·min/L and 276.18 µmol·min/L.

And the AUC(0-t) [1]?
Its AUC(0-t) is 216.96 µmol·min/L and 327.78 µmol·min/L and 266.45 µmol·min/L.

And the Cl/F [1]?
The Cl/F was 0.000944 L/min and 0.000635 L/min and 0.000775 L/min.

What about the T1/2 [1] of the same compound?
The T1/2 was 1.051 h and 1.132 h.

What about the Cmax (D10.1 PO 12.2 mg/kg, individual mice M1, M2, M3, 12.2 mg/kg, read-out: Cmax) of the same compound?
Its Cmax is 3640 nM and 2640 nM.

And the “AUC0-∞” value [2]?
Its value is 279.94 µmol·min/L.

What about the AUC(0-t) [2] of the same compound?
The AUC(0-t) was 270.4 µmol·min/L.

What about the Plasma level (D10.1 SQ 12.2 mg/kg, 15 min, mean n=3) of the same compound?
Its Plasma level is 2530 nM.

What about the Plasma level (D10.1 SQ 12.2 mg/kg, 30 min, individual mice M1, M2, M3) of the same compound?
Its Plasma level is 1810 nM and 3690 nM and 5150 nM.

What about the Plasma level (D10.1 SQ 12.2 mg/kg, 30 min, mean n=3) of the same compound?
Its Plasma level is 3550 nM.

And the Plasma level (D10.1 SQ 12.2 mg/kg, 60 min, individual mice M1, M2, M3)?
The Plasma level was 1870 nM and 4880 nM and 5030 nM.

What about the Plasma level (D10.1 SQ 12.2 mg/kg, 60 min, mean n=3) of the same compound?
The Plasma level was 3930 nM.

And the Plasma level (D10.1 SQ 12.2 mg/kg, 360 min, mean)?
Its Plasma level is 2290 nM.

What about the Plasma level (D10.1 SQ 12.2 mg/kg, 1440 min, individual mice M1, M2, M3) of the same compound?
The Plasma level was 0 nM.

What about the Plasma level (D10.1 SQ 12.2 mg/kg, 1440 min, mean n=3) of the same compound?
The Plasma level was 10 nM.

What about the AUC(0-t) [3] of the same compound?
The AUC(0-t) was 730.93 µmol·min/L and 3578.6 µmol·min/L and 1329.09 µmol·min/L.

And the Tmax [3]?
Its Tmax is 6 h and 1 h.

What about the Cmax (D10.1 SQ 12.2 mg/kg, individual mice M1, M2, M3, read-out: Cmax) of the same compound?
Its Cmax is 2400 nM and 4880 nM and 5150 nM.

And the “AUC0-∞” value [4]?
Its value is 3585.94 µmol·min/L and 2148.41 µmol·min/L.

And the Cl/F [4]?
The Cl/F was 5.97e-05 L/min and 9.96e-05 L/min.

What about the T1/2 [4] of the same compound?
Its T1/2 is 4.3302 h.

What about the “AUC0-∞” value (D10.1 SQ 12.2 mg/kg, mean) of the same compound?
The value was 2867.17 µmol·min/L.

And the “Half-life T1/2” value (D10.1 SQ 12.2 mg/kg, mean)?
Its value is 3.7563 ± 0.8117 h.

And the AUC(0-t) (D10.1 SQ 12.2 mg/kg, mean n=3)?
The AUC(0-t) was 1879.54 µmol·min/L.

And the clearance (female, Balb/C, mouse, plasma, iv, […], D10.1 IV […], individual mice M1, M2, M3, read-out: CLP)?
Its clearance is 3.46 mL/min/kg.

What about the half-life (female, Balb/C, mouse, plasma, iv, […], D10.1 IV […], individual mice M1, M2, M3, read-out: T1/2) of the same compound?
Its half-life is 1.21 h.

What about the Vd (female, Balb/C, mouse, plasma, iv, […], D10.1 IV […], individual mice M1, M2, M3, read-out: VSS) of the same compound?
Its Vd is 0.32 L/kg.

What about the Vd (female, Balb/C, mouse, plasma, iv, […], D10.1 IV […], individual mice M1, M2, M3, read-out: VZ) of the same compound?
Its Vd is 0.36 L/kg.

And the half-life (female, Balb/C, mouse, plasma, iv, […], D10.1 IV […], mean n=3, read-out: Half-life T1/2)?
Its half-life is 1.12 ± 0.113 h.

And the clearance (female, Balb/C, mouse, plasma, iv, […], D10.1 IV […], mean n=3, read-out: Plasma clearance CLP)?
The clearance was 3.26 ± 0.37 mL/min/kg.

And the Vd (female, Balb/C, mouse, plasma, iv, […], D10.1 IV […], mean n=3, read-out: Volume of distribution @ steady state VSS)?
The Vd was 0.25 ± 0.08 L/kg.

And the Vd (female, Balb/C, mouse, plasma, iv, […], D10.1 IV […], mean n=3, read-out: Volume of distribution during elimination phase VZ)?
The Vd was 0.32 ± 0.07 L/kg.

What about the level at time molar at 0.25 h (female, Balb/C, mouse, plasma, po, 12.2 mg/kg, D10.1 PO 12.2 mg/kg, 15 min, individual mice M1, M2, M3, read-out: Plasma level) of the same compound?
The level at time molar at 0.25 h was 2220 nM.

What about the level at time molar at 2 h (female, Balb/C, mouse, plasma, po, 12.2 mg/kg, D10.1 PO 12.2 mg/kg, 120 min, individual mice M1, M2, M3, read-out: Plasma level) of the same compound?
The level at time molar at 2 h was 540 nM.

And the level at time molar at 4 h (female, Balb/C, mouse, plasma, po, 12.2 mg/kg, D10.1 PO 12.2 mg/kg, 240 min, individual mice M1, M2, M3)?
The level at time molar at 4 h was 130 nM.

What about the level at time molar at 6 h (female, Balb/C, mouse, plasma, po, 12.2 mg/kg, D10.1 PO 12.2 mg/kg, 360 min, individual mice M1, M2, M3, read-out: Plasma level) of the same compound?
The level at time molar at 6 h was 100 nM.

What about the Cmax (female, Balb/C, mouse, plasma, po, 12.2 mg/kg, D10.1 PO 12.2 mg/kg, individual mice M1, M2, M3, read-out: Cmax) of the same compound?
Its Cmax is 2490 nM.

And the half-life (female, Balb/C, mouse, plasma, po, 12.2 mg/kg, D10.1 PO 12.2 mg/kg, individual mice M1, M2, M3, read-out: T1/2)?
The half-life was 0.831 h.

What about the Tmax (female, Balb/C, mouse, plasma, po, 12.2 mg/kg, D10.1 PO 12.2 mg/kg, individual mice M1, M2, M3, read-out: Tmax (converted)) of the same compound?
The Tmax was 0.5 h.

And the half-life (female, Balb/C, mouse, plasma, po, 12.2 mg/kg, D10.1 PO 12.2 mg/kg, mean n=3, read-out: Half-life T1/2)?
Its half-life is 1 ± 0.156 h.

And the Cmax (female, Balb/C, mouse, plasma, po, 12.2 mg/kg, D10.1 PO 12.2 mg/kg, mean n=3, read-out: Max concentration Cmax)?
Its Cmax is 2920 ± 630 nM.

And the Tmax (female, Balb/C, mouse, plasma, po, 12.2 mg/kg, D10.1 PO 12.2 mg/kg, mean n=3, read-out: Time of max concentration Tmax (converted))?
Its Tmax is 0.5 h.

And the bioavailability (female, Balb/C, mouse, plasma, po, 12.2 mg/kg, read-out: Oral bioavailability F)?
The bioavailability was 7.48 ± 1.79%.

What about the level at time molar at 6 h (female, Balb/C, mouse, plasma, sc, 12.2 mg/kg, D10.1 SQ 12.2 mg/kg, 360 min, individual mice M1, M3 (M2 ND), read-out: Plasma level) of the same compound?
The level at time molar at 6 h was 2400 nM.

What about the level at time molar at 24 h (female, Balb/C, mouse, plasma, sc, 12.2 mg/kg, D10.1 SQ 12.2 mg/kg, 1440 min, individual mice M1, M2, M3, read-out: Plasma level) of the same compound?
The level at time molar at 24 h was 30 nM.

And the AUC(0-inf) (female, Balb/C, mouse, plasma, sc, D10.1 SQ 12.2 mg/kg, mean)?
The AUC(0-inf) was 47.8 µM·h.

What about the AUC(0-t) (female, Balb/C, mouse, plasma, sc, D10.1 SQ 12.2 mg/kg, mean n=3, read-out: AUC0-t (converted)) of the same compound?
The AUC(0-t) was 1880 µmol·min/L.

And the half-life (female, Balb/C, mouse, plasma, subcutaneous, 12.2 mg/kg, D10.1 SQ 12.2 mg/kg, individual mice M2, M3 (M1 NA), read-out: T1/2)?
The half-life was 3.18 h.

What about the AUC(0-inf) (female, Balb/C, mouse, plasma, D10.1 PO 12.2 mg/kg, mean n=3) of the same compound?
The AUC(0-inf) was 4.67 µM·h.

And the AUC(0-t) (female, Balb/C, mouse, plasma, D10.1 PO 12.2 mg/kg, mean n=3, read-out: AUC0-t (converted))?
The AUC(0-t) was 270 µmol·min/L.

What about the CL/F (female, Balb/C, mouse, plasma, D10.1 PO 12.2 mg/kg, mean n=3, read-out: Apparent clearance Cl/F) of the same compound?
Its CL/F is 0.785 mL/min.

What about the half-life (mouse, in vivo, sc, 12.2 mg/kg, D10.1 after SQ administration, read-out: plasma half-life T1/2 (converted)) of the same compound?
Its half-life is 3.75 h.
